Assay results published in US12382954B2, “Pinocembrin dihydrochalcone and compositions thereof and their use as pesticides” (METABOLIC INSIGHTS LTD., priority 2019, dated 2025).

Tests used:
Phytophthora infestans [1] = type: in vivo; settings: tomato detached leaf experiment, 500-1000 ppm, spray on leaves, 6 days after infection
Spodoptera litoralis = experiment: In-vitro screening matrix, Spodoptera litoralis; settings: 50 ppm
Rhizoctonia solani = type: cell-based; settings: 50 ppm
Mizus Persicae = experiment: In-vitro screening matrix, Mizus Persicae; settings: 50 ppm
Sclerotinia sclerotiorum = type: cell-based; settings: 50 ppm
[2] = system: Pectobacterium carotovorum; type: cell-based; settings: 50 ppm
[3] = system: Pseudoperonospora cubensis; type: cell-based; settings: 50 ppm
Xanthomonas campestris = type: cell-based; settings: 50 ppm
Pseudomonas syringae = type: cell-based; settings: 50 ppm
Fusarium oxysporum [4] = type: cell-based; settings: 50 ppm
Puccinia sorghi = type: cell-based; settings: 50 ppm
Phytophthora infestans [5] = type: cell-based; settings: 50 ppm, tomato leaf discs, % of maximal value (grade x repeats/12)
Fusarium oxysporum [6] = experiment: In planta validation, cucumber seedlings infected with Fusarium oxysporum; type: in vivo; settings: 3 weeks after infection, 3 independent experiments
Pythium aphanidermatum [7] = type: cell-based; settings: 50 ppm
Pythium aphanidermatum [8] = experiment: In planta validation, cucumber seedlings infected with Pythium aphanidermatum (soil drench); type: in vivo; settings: 4 days after infection, 150 ppm-500 ppm, 2 independent experiments
Puccinia triticina = type: cell-based; settings: 50 ppm
Botrytis cinerea = type: cell-based; settings: 50 ppm

## O=C(CCc1ccccc1)c1c(O)cc(O)cc1O [Pinocembrin dihydrochalcone, 3-phenyl-1-(2,4,6-trihydroxyphenyl)propan-1-one]
Phytophthora infestans [1]
  control of Phytophthora infestans: up to 100%
Spodoptera litoralis
  Relative Activity value (%): 0%
Rhizoctonia solani
  Relative Activity value (%): 6%
Mizus Persicae
  Relative Activity value (%): 0%
Sclerotinia sclerotiorum
  Relative Activity value (%): 6%
[2]
  Relative Activity value (%): 12%
[3]
  Relative Activity value (%): 50%
Xanthomonas campestris
  Relative Activity value (%): 50%
Pseudomonas syringae
  Relative Activity value (%): 6%
Fusarium oxysporum [4]
  Relative Activity value (%): 9%
Puccinia sorghi
  Relative Activity value (%): 0%
Phytophthora infestans [5]
  Relative Activity value (%): 100%
Fusarium oxysporum [6]; 100 ppm and 200 ppm
  range of efficacy in preventing and controlling the Fusarium diseases: 66-100%
Fusarium oxysporum [6]; 300 ppm
  range of efficacy in preventing and controlling the Fusarium diseases: 88-100%
Pythium aphanidermatum [7]
  Relative Activity value (%): 100%
Pythium aphanidermatum [8]
  range of efficacy in preventing and controlling the Pythium disease: up to 100%
Puccinia triticina
  Relative Activity value (%): 19%
Botrytis cinerea
  Relative Activity value (%): 0%
